How the values were obtained:
[1] = system: intracellular calcium stores release; assay: FcεRI-induced intracellular calcium (Fura-2) in MC; assay type: cell-based, human; conditions: 10 μg/mL overnight; anti-FcεRI 1 μg/mL
Protocol: (§1) MC were pre-treated with or without fullerene derivatives as above, washed with Tyrodes buffer supplemented with BSA, and incubated with Fura-2 AM (2 μM) for 30 minutes at 37° C. Cells were washed, stimulated with anti-FcεRI, and calcium flux measured in real time on a Perkin Elmer LS55 Spectrofluorometer. For ROS production, cells were exposed to fullerene derivatives as above. After washing, cells were re-suspended in X-Vivo medium containing 5 μM dichlorodihydrofluorescein (DCF) at 37° C. for 30 minutes, washed, and activation-induced changes in mean fluorescence was measured with excitation at 502 nm and emission at 523 nm for 15 minutes (19). The data is presented as fluorescence intensity of the 523 nm emission over time. All experiments were performed in triplicate and degranulation was measured in parallel.
(§2) Cells were incubated with or without fullerene derivative (10 μg/mL) overnight. The next day cells were challenged with anti-FcεRI (3B4; 1 μg/mL) and calcium stores release was determined by the 340/380 nm ratio (FIGS. 11A and 11B) and ROS measured by DCF detection at 523 nm (FIGS. 11C and 11D). FIGS. 11A and 11C contain cells incubated with the TGA fullerene derivative, and FIGS. 11B and 11D contain cells incubated with the Inos fullerene derivative (10 μg/mL). […]

ROS = assay: FcεRI-induced ROS (DCF) in MC; assay type: cell-based, human; conditions: 10 μg/mL overnight; anti-FcεRI 1 μg/mL
Protocol: as §1, §2

LAT phosphorylation = assay: Western blotting of FcεRI-activated phospho-signaling in MC: LAT; assay type: cell-based, human; conditions: 10 μg/mL overnight
Protocol: Cell lysate preparation and Western blotting were performed using a protocol optimized for extracting phospho-proteins from human MC. Tkaczyk, C., Metcalfe, D. D., and Gilfillan, A. M. J. Immunol. Methods 268, 239-243 (2002). Following activation, cells were lysed directly in boiling denaturing sample buffer consisting of tris-buffered saline with triton-X-100 (0.5%) and protease and phosphatase inhibitors. The cell suspension was then passed through a 20-gauge needle, boiled, and centrifuged to remove cell debris. Proteins were separated on 8% or 10% NuPage Tris-Bis gels using Licor running buffer. Western blotting was performed using Licor blocking buffer and IR800 and IR700 anti-rabbit F(ab)2 secondary Abs (1:1000). Primary Abs were from Cell Signaling Technologies or Santa Cruz unless otherwise noted. Band intensities were captured using the Odyssey Imaging System and bands quantified by measuring the number of pixels in each band using a box drawn for the same area of measurement for each separate blot. The band intensity was then normalized for loading by dividing the number of pixels in each band with the housekeeping band intensity (β-actin) performed on the same blot.
MC were pretreated with Inos or TGA (10 μg/mL) overnight at 37° C./6% CO2. The next day washed cells were activated with or without anti-FcεRI (1 μg/mL) for the indicated times and lysed using protocols described above. Two separate 10% Tris-Glycine gels were used for sodium dodecyl sulfate polyacrylamide gel electrophoresis (SDS-PAGE) and Western blotting performed with the indicated phosphorylation-specific (i.e., phosph-Lyn) antibodies. To ensure equal loading, an antiactin antibody was used in parallel. The intensity of each band was detected and quantified using an Odyssey imaging system. Band intensities are presented as a ratio compared to antiactin band intensities probed in the same lane and presented for each time point in the colored graphs on the right side. Results are representative of three separate experiments. […]

FcεRI activated genes = assay: Gene microarray of FcεRI-activated MC; assay type: cell-based, human
Protocol: (§3) Mast cells (1×10^7 cell/condition; each condition performed in triplicate) were incubated with or without fullerene derivatives as above and incubated with or without anti-FcεRI antibodies for 10 minutes, supernatants were removed (to remove pre-formed mediators), and fresh warm medium containing anti-FcεRI antibodies (14 ml) added for 2 hours. Cells were centrifuged, the supernatant and the pellet immediately frozen and microarray performed using the Human Whole Genome OneArray™ gene expression profiling service (Phalanx Biotech Group). Separate samples, assayed in parallel were lysed and protein expression analyzed by Western blotting or flow cytometry (CD45) as described in Kepley, C. L., Pfeiffer, J., Wilson, B. W., Schwartz, L. B., and Oliver, J. M. J. Leukocyte Biol. 64, 474-483 (1998).
For microarray RNA was isolated using the Ambion MessageAmp aRNA kit; all samples passed the internal quality control checks. For hybridization each sample was run in triplicate. Optical density was measured by NanoDrop ND-1000. The ratio of absorbance at 260 nm and 280 nm provides an estimate of RNA purity. […] The reactive amino group of 5-(3-aminoallyl)-UTP/5-(3-aminoallyl)-dUTP was used to conjugate the purified aRNA/cDNA with the NHS-CyDye. Labeling efficiency was calculated by the concentration of CyDye and aRNA/cDNA which was above 10. For hybridization 10 μg Cy5-labeled aRNA was utilized by the Phalanx Hybridization Protocol Array Version HOA 4.3.
Pearson correlation tables (R values) for each technical repeat were calculated from raw log 2 intensity (R) and normalized log 2 intensity (N) values and compared to each other. Only probes with P value (detected) less than 0.05 were included in the calculation. […] Greater than 95% of the samples had R values of 0.8 or greater indicating strong correlation between the two parameters.
In order to examine the genes most affected by fullerene derivative preincubation the resulting values were sorted and filtered the following way. First, the mean (±SD) of the six values from each condition for each of the 30,970 genes was calculated. […]

Fyn = Fyn protein level in MC; assay type: cell-based, human; conditions: pre-incubated with TGA
Protocol: as §3
Downregulation observed at the gene level was verified at the protein level for several representative molecules using Western blotting or flow cytometry.

mice = assay: In vivo administration of TGA for three weeks: behavior, gross pathology; conditions: i.v. daily; 200 ng/three weeks
Source text: (§4) Taken together, the derivatives described herein are not cytotoxic to several cell lines tested and appear to have no acute in vivo cytotoxic effects.

Ames test = conditions: not shown
Source text: as §4

C70-tetraglycolic acid [TGA]
FcεRI-induced intracellular calcium stores release [1]: inhibited | FcεRI-induced ROS (ROS): inhibited | reduced LAT phosphorylation (LAT phosphorylation; 3 minutes): 36% | reduced LAT phosphorylation (LAT phosphorylation; 5 minutes): 72% | reduced LAT phosphorylation (LAT phosphorylation; 10 minutes): 69% | genes whose FcεRI-induced activation was reduced (FcεRI activated genes): over 1000 | genes decreased at least 20% compared to non treated cells (FcεRI activated genes; 2 hours FcεRI activation): 2,603 | genes with greater than 50% inhibition (FcεRI activated genes; 2 hours FcεRI activation): 515 | Fyn protein levels (Fyn): no change | behavior (mice): no notable differences in behavior | gross pathological examination (mice): no abnormalities | mutagenic potential (Ames test): No mutagenic potential

— patent US20110251158A1, “FULLERENE THERAPIES FOR INFLAMMATION AND INHIBITION OF BUILD-UP OF ARTERIAL PLAQUE” (Luna Innovations Incorporated, priority 2008, published 2011)
